Measured values taken from patent US7129074B2, “Nucleoside triphosphate diphosphohydrolase (NTPDase 8) and uses thereof” (Université Laval, priority 2002, dated 2006).

T1: human NTPDase8 (Homo sapiens, UniProt Q5MY95, L62P)
T1 construct: expressed in transfected cells; host or cells: COS-7
T1 sequence (Q5MY95 1-495 L62P): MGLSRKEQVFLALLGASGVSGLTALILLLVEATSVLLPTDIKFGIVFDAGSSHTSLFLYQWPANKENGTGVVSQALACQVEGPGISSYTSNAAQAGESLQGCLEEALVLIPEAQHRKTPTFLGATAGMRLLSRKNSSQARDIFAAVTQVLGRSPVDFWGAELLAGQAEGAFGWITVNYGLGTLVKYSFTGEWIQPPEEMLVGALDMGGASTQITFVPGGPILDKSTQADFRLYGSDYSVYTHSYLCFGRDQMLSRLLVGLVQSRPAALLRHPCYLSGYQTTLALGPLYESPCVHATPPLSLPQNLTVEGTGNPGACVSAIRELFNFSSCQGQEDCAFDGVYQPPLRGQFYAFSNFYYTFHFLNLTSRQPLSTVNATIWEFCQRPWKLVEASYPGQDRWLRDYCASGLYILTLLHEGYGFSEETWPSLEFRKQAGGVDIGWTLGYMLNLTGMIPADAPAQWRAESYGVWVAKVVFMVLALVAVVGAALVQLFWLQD

T2: mouse NTPDase8 (Mus musculus, UniProt Q8K0L2)
T2 construct: expressed in transfected cells; host or cells: COS-7
T2 sequence (Q8K0L2 1-497): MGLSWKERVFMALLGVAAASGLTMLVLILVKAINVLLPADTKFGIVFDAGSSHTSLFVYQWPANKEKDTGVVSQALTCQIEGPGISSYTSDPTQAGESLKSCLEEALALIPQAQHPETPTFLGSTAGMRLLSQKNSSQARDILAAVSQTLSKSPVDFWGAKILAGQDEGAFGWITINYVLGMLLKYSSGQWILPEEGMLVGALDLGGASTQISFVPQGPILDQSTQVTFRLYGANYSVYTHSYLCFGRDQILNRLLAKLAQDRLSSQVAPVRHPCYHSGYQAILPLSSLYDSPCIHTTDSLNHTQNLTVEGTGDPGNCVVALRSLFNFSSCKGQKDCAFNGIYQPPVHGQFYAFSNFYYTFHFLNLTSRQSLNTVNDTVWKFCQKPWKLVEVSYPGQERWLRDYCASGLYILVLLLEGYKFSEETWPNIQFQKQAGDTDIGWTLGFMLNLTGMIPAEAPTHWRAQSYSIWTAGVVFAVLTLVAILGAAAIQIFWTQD

B1: mNTPDase1: mouse NTPDase1 protein extract from transfected COS cells (protein, UniProt P55772 1-510, looked up)
Ectonucleoside triphosphate …: MEDIKDSKVKRFCSKNILIILGFTSILAVIALIAVGLTQNKPLPENVKYGIVLDAGSSHTNLYIYKWPAEKENDTGVVQQLEECQVKGPGISKYAQKTDEIGAYLAECMELSTELIPTSKHHQTPVYLGATAGMRLLRMESEQSADEVLAAVSTSLKSYPFDFQGAKIITGQEEGAYGWITINYLLGRFTQEQSWLSLISDSQKQETFGALDLGGASTQITFVPQNSTIESPENSLQFRLYGEDYTVYTHSFLCYGKDQALWQKLAKDIQVSSGGVLKDPCFNPGYEKVVNVSELYGTPCTKRFEKKLPFDQFRIQGTGDYEQCHQSILELFNNSHCPYSQCAFNGVFLPPLHGSFGAFSAFYFVMDFFKKVAKNSVISQEKMTEITKNFCSKSWEETKTSYPSVKEKYLSEYCFSGAYILSLLQGYNFTDSSWEQIHFMGKIKDSNAGWTLGYMLNLTNMIPAEQPLSPPLPHSTYIGLMVLFSLLLVAVAITGLFIYSKPSYFWKEAV
modifications: COS cell extract
notes: mouse NTPDase1 protein extract from transfected COS cells
B2: mNTPDase8: mouse nucleoside triphosphate diphosphohydrolase 8, SEQ ID NO:1, protein extract from transfected COS-7 cells (protein)
chain: MGLSWKERVFMALLGVAAASGLTMLVLILVKAINVLLPADTKFGIVFDAGSSHTSLFVYQWPANKEKDTGVVSQALTCQIEGPGISSYTSDPTQAGESLKSCLEEALALIPQAQHPETPTFLGSTAGMRLLSQKNSSQARDILAAVSQTLSKSPVDFWGAKILAGQDEGAFGWITINYVLGMLLKYSSGQWILPEEGMLVGALDLGGASTQISFVPQGPILDQSTQVTFRLYGANYSVYTHSYLCFGRDQILNRLLAKLAQDRLSSQVAPVRHPCYHSGYQAILPLSSLYDSPCIHTTDSLNHTQNLTVEGTGDPGNCVVALRSLFNFSSCKGQKDCAFNGIYQPPVHGQFYAFSNFYYTFHFLNLTSRQSLNTVNDTVWKFCQKPWKLVEVSYPGQERWLRDYCASGLYILVLLLEGYKFSEETWPNIQFQKQAGDTDIGWTLGFMLNLTGMIPAEAPTHWRAQSYSIWTAGVVFAVLTLVAILGAAAIQIFWTQD
modifications: PEPTIDE (1)...(497) Mouse HTPDase8

Legend:
[1] = target: T1, human NTPDase8; assay: Activity on protein extracts from human NTPDase8 transient transfected COS-7 cells; assay type: biochemical; conditions: substrate hydrolysis by human NTPDase8 protein extracts
Protocol: (§1) Enzyme activity in the protein fractions was determined as previously described (Sévigny et al, 1997, Biochimica Biophysica Acta 1334:73–88) Briefly, enzyme activity was measured at 37° C. in 0.5 ml of the following incubation medium: […] either with 100 mM Tris, pH 7.4 or with 100 mM MES, pH 6.4 or as indicated. Enzyme preparation was added to the incubation mixture and pre-incubated at 37° C. for 3 min. Reaction was started by the addition of 0.5 mM substrate (ATP, ADP, UTP, UDP or AMP) and stopped after 20 min by the addition of 0.125 ml of the malachite green reagent (Baykov and Evtushenko, 1988, Analytical Biochemistry 171:266–270). Activity on intact cells was carried out in similar conditions in 24 wells plates, also 40–44 h after transfection, with the addition of 145 mM NaCl to the incubation medium. The reaction was stopped by taking 0.2 ml of the reaction mixture to a new tube containing 50 μl of malachite reagent. The inorganic phosphate […] released from the hydrolysis of exogenous nucleotides was measured according to Baykov et al. (Baykov and Evtushenko, 1988, Analytical Biochemistry 171:266–270)
The activity of the protein extracts of human NTPDase8 was carried out as described previously herein and the results are shown in Table 3.

[2] = target: T2, mouse NTPDase8; assay: NTPDase activity measurement (Pi release, malachite green) on protein extracts of COS-7 cells transfected with mouse NTPDase8; assay type: biochemical; conditions: for Vmax,app / Km: substrate of NTPDase8, Woolf-Augustinsson-Hofstee plot, mean ± SEM; for Km: read-out: Km,app
Protocol: COS-7 cells were transfected in 10 cm plates using Lipofectamine™ (Invitrogen), as previously described (Kaczmarek et al, 1996, JBC, 271:33116–33122). Briefly, cells were incubated for 5 h at 37° C. in DMEM in absence of foetal bovine serum (FBS) with 6 μg of plasmid DNA and 24 μl of Lipofectamine™ reagent. The reaction was stopped by adding an equal volume of DMEM containing 20% FBS and cell were harvested 40–44 h later. For protein preparation, transfected cells were washed three times with Tris-saline buffer at 4° C., harvested by scraping in 95 mM NaCl, 0.1 mM PMSF and 45 mM Tris, pH 7.5, and washed twice by 300×g centrifugation for 10 min at 4° C. Cells were resuspended in the harvesting buffer containing 10 μg/ml aprotinin and sonicated. Nucleus and cellular debris were discarded by another centrifugation as described above and the supernatants stored at −80° C. until used. Protein concentration was estimated by the Bradford microplate assay using bovine serum albumin (BSA) as a standard of reference (Bradford, 1976, Analyt. Biochem., 72:248–254).
as §1
Optimum pH was determined in the presence of 5 mM CaCl2 with the following buffers: 100 mM acetate (pH 4.0–5.5), 100 mM MES (pH 5.5–7.0), 100 mM Tris (pH 7.0–9.0) or 100 mM glycine pH (9.0–11.0). In the indicated experiments CaCl2 was substituted by MgCl2. To remove traces of divalent cations 1 mM EDTA plus 1 mM EGTA was added to the medium. One unit of enzyme activity corresponds to the release of 1 μmole Pi/min at 37° C. (LeBel et al., 1980, J. Biol. Chem. 255:1227–1233). All experiments were performed in triplicate with the appropriate controls.

[3] = target: T2, mouse NTPDase8; assay: HPLC separation and quantification of nucleotides hydrolysed by mouse NTPDase8; assay type: biochemical
Protocol: For HPLC analysis, activity assays were performed in 5 mM CaCl2 and 100 mM MES, pH 6.4 as described above with the following modifications. Aliquots of 20 μL were taken at different time points from the enzymatic reaction and activity stopped by the addition of an equal volume of ice-cold 1 M perchloric acid. The samples were centrifuged for 5 min at 1000×g at 4° C. Supernatants were neutralized with 1 M KOH (4° C.), centrifuged for a subsequent 5 min at 1000×g and then lipids were removed by liquid-liquid extraction with n-heptane (5:1, v/v). An aliquot of 20 μL from the lipid extracted sample was applied to a column connected to a HPLC system.
Adenine nucleotides (ATP, ADP and AMP) were separated on a 15 cm×4.6 mm, 3 μm SUPELCOSIL™ LC-18-T column (Supelco, Bellefonte, Pa., USA) with a mobile phase composed of 25 mM TBA, 5 mM EDTA, 100 mM KH2PO4/K2HPO4, pH 7.0 and 2% methanol (v/v), at a flow-rate of 1 ml/min. […] Combined adenine and uridine nucleotide samples were analyzed with the latter column with a mobile phase composed of 16.7 mM TBA, 3.3 mM EDTA, 66.7 mM KH2PO4/K2HPO4, pH 7.0. The flow rate was 0.5 ml/min for the first 20 min and 1 ml/min up to 90 min. The nucleotides were detected by UV absorption at 260 nm and identified by comparison of the retention time and UV spectrum with the appropriate standards.

[4] = tested on: platelet aggregation in PRP; assay: ADP-induced platelet aggregation in human PRP (optic density at 600 nm); assay type: cell-based; conditions: 4 uM ADP; PRP preincubated 25 seconds with 250 ug mNTPDase8 or 3 ug mNTPDase1 protein extracts
Protocol: Cell membrane preparation and platelet aggregation assays were performed as described before.
PRP prepared from human donors was tested for platelet activation in the presence of exogenous ADP and protein extracts from COS cell transfected with pcDNA3.11V5-His encoding mouse NTPDase8 (mNTPDase8) or mouse (mNTPDase1) (FIG. 6). Optic density at 600 nm was recorded over a period of 8 minutes. Before the addition of 4 uM ADP, PRP was preincubated for 25 seconds with 250 ug mNTPDase8 or 3 ug mNTPDase1 protein extracts, 250 ug untransfected COS cells or without protein extract (agonist: 4 uM ADP). Note that 4 uM ADP induced high levels of platelet aggregation in control samples.

| Molecule | Activity [1] [nmols Pi/min/mg] | Vmax,app [2] | Km [2] [µM] | further results |
| --- | --- | --- | --- | --- |
| O=c1ccn([C@@H]2O[C@H](COP(=O)(O)OP(=O)(O)OP(=O)(O)O)[C@@H](O)[C@H]2O)c(=O)[nH]1 [UTP] | 271 ± 35 | 1.13 ± 0.02 U/mg of protein | 47 ± 1 |  |
| Nc1ncnc2c1ncn2[C@@H]1O[C@H](COP(=O)(O)O)[C@@H](O)[C@H]1O [AMP] | 2 ± 0.6 |  |  | hydrolysis by NTPDase8 ([2]; in the presence of Ca2+): did not hydrolyze |
| Nc1ncnc2c1ncn2[C@@H]1O[C@H](COP(=O)(O)OP(=O)(O)OP(=O)(O)O)[C@@H](O)[C@H]1O [ATP] | 264 ± 7 | 0.82 ± 0.02 U/mg of protein | 13 ± 6 |  |
| O=c1ccn([C@@H]2O[C@H](COP(=O)(O)OP(=O)(O)O)[C@@H](O)[C@H]2O)c(=O)[nH]1 [UDP] | 38 ± 5 | 1.08 ± 0.06 U/mg of protein | 171 ± 15 | remaining concentration after 120 min ([3]; formed from UTP incubated with NTPDase8 extracts): 140 µM |
| Nc1ncnc2c1ncn2[C@@H]1O[C@H](COP(=O)(O)OP(=O)(O)O)[C@@H](O)[C@H]1O [ADP] | 55 ± 15 | 0.95 ± 0.08 U/mg of protein | 41 ± 6 | hydrolysis after 120 min ([3]; formed from ATP incubated with NTPDase8 extracts): completely hydrolyzed |
| B1 |  |  |  | inhibition of platelet aggregation [4]: 100% |
| B2 |  |  |  | inhibition of platelet aggregation [4]: 53%; activity in absence of divalent cations ([2]; 1 mM EDTA and 1 mM EGTA, any of the substrates tested): no activity could be detected; pH of optimal activity ([2]; ADPase activity, evaluated from pH 4.0 to 11.0): ~6.4; pH range in which highly active ([2]; ATPase and ADPase activity, evaluated from pH 4.0 to 11.0): 5.5–7.0; ratio of hydrolysis ATP/ADP ([2]; in the presence of Ca2+): 1.6±0.3; ratio of hydrolysis UTP/UDP ([2]; in the presence of Ca2+): 2.1±0.3 |
